Experimental data as given in patent US6737383B1, “Herbicidal oxadiazolidines” (priority 1999, dated 2004).

Assays:
bedstraw = assay: Test B pre/postemergence bedstraw; assay type: in vivo, Galium aparine
Summary of the method: (§1)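 Response is a visual 0-to-10 score relative to untreated plants, where 0 means no effect and 10 means complete control, taken twelve to sixteen days after application. Treatments went onto soil at planting and onto foliage of 1- to 4-leaf plants, using a surfactant-containing non-phytotoxic solvent.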

purple nutsedge = assay: Test B pre/postemergence purple nutsedge; assay type: in vivo, Cyperus rotundus
Summary of the method: as §1

wheat = assay: Test B pre/postemergence wheat; assay type: in vivo, Triticum aestivum
Summary of the method: as §1

surinam grass = assay: Test B pre/postemergence surinam grass; assay type: in vivo, Brachiaria decumbens
Summary of the method: as §1

velvetleaf = assay: Test B pre/postemergence velvetleaf; assay type: in vivo, Abutilon theophrasti
Summary of the method: as §1

rape = assay: Test B pre/postemergence rape; assay type: in vivo, Brassica napus
Summary of the method: as §1

wild oat = assay: Test B pre/postemergence wild oat; assay type: in vivo, Avena fatua
Summary of the method: as §1

crabgrass = assay: Test B pre/postemergence crabgrass; assay type: in vivo, Digitaria sanguinalis
Summary of the method: as §1

bamyardgrass = assay: Test B flood test barnyardgrass; assay type: in vivo, Echinochloa crus-galli
Summary of the method: (§2)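 Read-out is a visual response score from 0 (no effect) to 10 (complete control), assigned by comparison with untreated controls. Treatment was applied at the 2-leaf stage, and plants stayed in the greenhouse for twelve to sixteen days before scoring.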

sugar beet = assay: Test B pre/postemergence sugar beet; assay type: in vivo, Beta vulgaris
Summary of the method: as §1

soybean = assay: Test B pre/postemergence soybean; assay type: in vivo, Glycine max
Summary of the method: as §1

blackgrass = assay: Test B pre/postemergence blackgrass; assay type: in vivo, Alopecurus myosuroides
Summary of the method: as §1

corn = assay: Test B pre/postemergence corn; assay type: in vivo, Zea mays
Summary of the method: as §1

pigweed = assay: Test B pre/postemergence pigweed; assay type: in vivo, Amaranthus retroflexus
Summary of the method: as §1

cocklebur = assay: Test B pre/postemergence cocklebur; assay type: in vivo, Xanthium strumarium
Summary of the method: as §1

smallflower flatsedge = assay: Test B flood test smallflower flatsedge; assay type: in vivo, Cyperus difformis
Summary of the method: as §2

[1] = Preemergence, Rate 62 g/ha, scale of 0 to 10 where 0 is no effect and 10 is complete control
[2] = Preemergence, Rate 125 g/ha, 0 is no effect, 10 is complete control
[3] = Preemergence, Rate 250 g/ha, scale 0 to 10, 0 is no effect, 10 is complete control
[4] = Preemergence, Rate 500 g/ha, scale of 0 to 10 where 0 is no effect and 10 is complete control
[5] = Rate 62 g/ha, Postemergence, scale of 0 to 10 where 0 is no effect and 10 is complete control
[6] = Rate 125 g/ha, Postemergence, scale 0 to 10
[7] = Rate 500 g/ha, Postemergence, scale 0 to 10
[8] = Rate 62 g/ha, headed Pre-emergence (flood test species), scale 0 to 10 (0 no effect, 10 complete control)
[9] = Rate 125 g/ha, Pre-emergence, flood test species, scale 0 to 10 where 0 is no effect and 10 is complete control
[10] = Rate 250 g/ha, Pre-emergence, flood-test species, scale 0 to 10, 0 is no effect, 10 is complete control

## CCC(CC)N(C(=O)n1oc(=O)n(-c2ccccc2C)c1=O)c1ccc(F)cc1 [Compound 193]
bedstraw; [1]
  Bedstraw plant response rating: 0
bedstraw; [2]
  Bedstraw plant response rating (0 to 10 scale): 0
bedstraw; [3]
  Bedstraw plant response rating: 0
bedstraw; [4]
  Plant response rating, Bedstraw: 0
bedstraw; [5]
  Bedstraw plant response rating: 0
bedstraw; [6]
  Bedstraw plant response rating: 0
bedstraw; Rate 250 g/ha, Postemergence
  Plant response rating (0 to 10; 0 is no effect, 10 is complete control), Bedstraw: 0
bedstraw; [7]
  Bedstraw plant response rating: 0
Purple nutsedge; [1]
  Nutsedge plant response rating: 0
Purple nutsedge; [2]
  Nutsedge plant response rating (0 to 10 scale): 0
Purple nutsedge; [3]
  Nutsedge plant response rating: 0
Purple nutsedge; [4]
  Plant response rating, Nutsedge: 0
Purple nutsedge; [5]
  Nutsedge plant response rating: 0
Purple nutsedge; [6]
  Nutsedge plant response rating: 0
Purple nutsedge; Rate 250 g/ha, Postemergence
  Plant response rating (0 to 10; 0 is no effect, 10 is complete control), Nutsedge: 0
Purple nutsedge; [7]
  Nutsedge plant response rating: 0
wheat; [1]
  Wheat plant response rating: 0
wheat; [3]
  Wheat plant response rating: 0
wheat; [4]
  Plant response rating, Wheat: 0
wheat; [5]
  Wheat plant response rating: 0
wheat; [6]
  Wheat plant response rating: 0
wheat; Rate 250 g/ha, Postemergence
  Plant response rating (0 to 10; 0 is no effect, 10 is complete control), Wheat: 0
Surinam grass; [1]
  B. signalgrass plant response rating: 0
Surinam grass; [2]
  B. signalgrass plant response rating (0 to 10 scale): 0
Surinam grass; [3]
  B. signalgrass plant response rating: 0
Surinam grass; [4]
  Plant response rating, B. signalgrass: 0
Surinam grass; [5]
  B. signalgrass plant response rating: 0
Surinam grass; Rate 125 g/ha, Postemergence, scale 0 (no effect) to 10 (complete control)
  B. signalgrass plant response rating: 0
Surinam grass; Rate 250 g/ha, Postemergence, scale 0 to 10, 0 is no effect, 10 is complete control
  Plant response rating, B. signalgrass: 0
Surinam grass; Rate 500 g/ha, Postemergence, scale 0 to 10, 0 no effect, 10 complete control
  B. signalgrass plant response rating: 0
velvetleaf; [1]
  Velvetleaf plant response rating: 0
velvetleaf; [3]
  Velvetleaf plant response rating: 0
velvetleaf; [4]
  Plant response rating, Velvetleaf: 0
velvetleaf; [5]
  Velvetleaf plant response rating: 0
velvetleaf; [6]
  Velvetleaf plant response rating: 0
velvetleaf; Rate 250 g/ha, Postemergence
  Plant response rating (0 to 10; 0 is no effect, 10 is complete control), Velvetleaf: 0
rape; [1]
  Rape plant response rating: 0
rape; [2]
  Rape plant response rating (0 to 10 scale): 0
rape; [3]
  Rape plant response rating: 0
rape; [4]
  Plant response rating, Rape: 0
rape; [5]
  Rape plant response rating: 0
rape; [6]
  Rape plant response rating: 0
rape; Rate 250 g/ha, Postemergence
  Plant response rating (0 to 10; 0 is no effect, 10 is complete control), Rape: 0
rape; [7]
  Rape plant response rating: 0
Wild oat; [1]
  Wild oats plant response rating: 0
Wild oat; [3]
  Wild oats plant response rating: 0
Wild oat; [4]
  Plant response rating, Wild oats: 0
Wild oat; [5]
  Wild oats plant response rating: 0
Wild oat; [6]
  Wild oats plant response rating: 0
Wild oat; Rate 250 g/ha, Postemergence
  Plant response rating (0 to 10; 0 is no effect, 10 is complete control), Wild oats: 0
crabgrass; [2]
  Crabgrass plant response rating (0 to 10 scale): 4
crabgrass; [3]
  Crabgrass plant response rating: 6
crabgrass; [4]
  Plant response rating, Crabgrass: 7
crabgrass; [5]
  Crabgrass plant response rating: 0
crabgrass; [6]
  Crabgrass plant response rating: 0
crabgrass; Rate 250 g/ha, Postemergence
  Plant response rating (0 to 10; 0 is no effect, 10 is complete control), Crabgrass: 0
crabgrass; [7]
  Crabgrass plant response rating: 0
bamyardgrass; [8]
  Barnyardgrass plant response rating: 0
bamyardgrass; [9]
  Barnyardgrass plant response rating: 0
bamyardgrass; [10]
  Barnyardgrass plant response rating: 0
bamyardgrass; Rate 500 g/ha, headed Pre-emergence (flood test species), scale 0 to 10 (0 no effect, 10 complete control)
  Plant response rating, Barnyardgrass: 0
Sugar beet; [1]
  Sugarbeets plant response rating: 0
Sugar beet; [2]
  Sugarbeets plant response rating (0 to 10 scale): 0
Sugar beet; [3]
  Sugarbeets plant response rating: 0
Sugar beet; [4]
  Plant response rating, Sugarbeets: 0
Sugar beet; [5]
  Sugarbeets plant response rating: 0
Sugar beet; [6]
  Sugarbeets plant response rating: 0
Sugar beet; Rate 250 g/ha, Postemergence
  Plant response rating (0 to 10; 0 is no effect, 10 is complete control), Sugarbeets: 0
Sugar beet; [7]
  Sugarbeets plant response rating: 0
soybean; [1]
  Soybean plant response rating: 0
soybean; [2]
  Soybean plant response rating (0 to 10 scale): 0
soybean; [3]
  Soybean plant response rating: 0
soybean; [4]
  Plant response rating, Soybean: 0
soybean; [5]
  Soybean plant response rating: 0
soybean; [6]
  Soybean plant response rating: 1
soybean; Rate 250 g/ha, Postemergence
  Plant response rating (0 to 10; 0 is no effect, 10 is complete control), Soybean: 1
soybean; [7]
  Soybean plant response rating: 2
blackgrass; [1]
  Blackgrass plant response rating: 0
blackgrass; [2]
  Blackgrass plant response rating (0 to 10 scale): 0
blackgrass; [3]
  Blackgrass plant response rating: 0
blackgrass; [4]
  Plant response rating, Blackgrass: 0
blackgrass; [5]
  Blackgrass plant response rating: 0
blackgrass; [6]
  Blackgrass plant response rating: 0
blackgrass; Rate 250 g/ha, Postemergence
  Plant response rating (0 to 10; 0 is no effect, 10 is complete control), Blackgrass: 0
blackgrass; [7]
  Blackgrass plant response rating: 0
corn; [1]
  Corn plant response rating: 0
corn; [2]
  Corn plant response rating (0 to 10 scale): 0
corn; [3]
  Corn plant response rating: 0
corn; [4]
  Plant response rating, Corn: 0
corn; [5]
  Corn plant response rating: 0
corn; [6]
  Corn plant response rating: 0
corn; Rate 250 g/ha, Postemergence
  Plant response rating (0 to 10; 0 is no effect, 10 is complete control), Corn: 0
corn; [7]
  Corn plant response rating: 0
pigweed; [1]
  Redroot pigweed plant response rating: 0
pigweed; [2]
  Redroot pigweed plant response rating (0 to 10 scale): 0
pigweed; [3]
  Redroot pigweed plant response rating: 0
pigweed; [4]
  Plant response rating, Redroot pigweed: 0
pigweed; [5]
  Redroot pigweed plant response rating: 0
pigweed; [6]
  Redroot pigweed plant response rating: 0
pigweed; Rate 250 g/ha, Postemergence
  Plant response rating (0 to 10; 0 is no effect, 10 is complete control), Redroot pigweed: 0
pigweed; [7]
  Redroot pigweed plant response rating: 0
cocklebur; [1]
  Cocklebur plant response rating: 0
cocklebur; [2]
  Cocklebur plant response rating (0 to 10 scale): 0
cocklebur; [3]
  Cocklebur plant response rating: 0
cocklebur; [4]
  Plant response rating, Cocklebur: 0
cocklebur; [5]
  Cocklebur plant response rating: 0
cocklebur; [6]
  Cocklebur plant response rating: 0
cocklebur; Rate 250 g/ha, Postemergence
  Plant response rating (0 to 10; 0 is no effect, 10 is complete control), Cocklebur: 0
cocklebur; [7]
  Cocklebur plant response rating: 0
Smallflower flatsedge; [8]
  S. Flatsedge plant response rating: 0
Smallflower flatsedge; [9]
  S. Flatsedge plant response rating: 0
Smallflower flatsedge; [10]
  S. Flatsedge plant response rating: 0
Smallflower flatsedge; Rate 500 g/ha, Pre-emergence, flood test species, scale 0 to 10 (0 no effect, 10 complete control)
  S. Flatsedge plant response rating: 0
